Series [1] deals with T1, Protein deacetylase HDAC6 (Homo sapiens, UniProt Q9UBN7).
T1 sequence (Q9UBN7 whole entry): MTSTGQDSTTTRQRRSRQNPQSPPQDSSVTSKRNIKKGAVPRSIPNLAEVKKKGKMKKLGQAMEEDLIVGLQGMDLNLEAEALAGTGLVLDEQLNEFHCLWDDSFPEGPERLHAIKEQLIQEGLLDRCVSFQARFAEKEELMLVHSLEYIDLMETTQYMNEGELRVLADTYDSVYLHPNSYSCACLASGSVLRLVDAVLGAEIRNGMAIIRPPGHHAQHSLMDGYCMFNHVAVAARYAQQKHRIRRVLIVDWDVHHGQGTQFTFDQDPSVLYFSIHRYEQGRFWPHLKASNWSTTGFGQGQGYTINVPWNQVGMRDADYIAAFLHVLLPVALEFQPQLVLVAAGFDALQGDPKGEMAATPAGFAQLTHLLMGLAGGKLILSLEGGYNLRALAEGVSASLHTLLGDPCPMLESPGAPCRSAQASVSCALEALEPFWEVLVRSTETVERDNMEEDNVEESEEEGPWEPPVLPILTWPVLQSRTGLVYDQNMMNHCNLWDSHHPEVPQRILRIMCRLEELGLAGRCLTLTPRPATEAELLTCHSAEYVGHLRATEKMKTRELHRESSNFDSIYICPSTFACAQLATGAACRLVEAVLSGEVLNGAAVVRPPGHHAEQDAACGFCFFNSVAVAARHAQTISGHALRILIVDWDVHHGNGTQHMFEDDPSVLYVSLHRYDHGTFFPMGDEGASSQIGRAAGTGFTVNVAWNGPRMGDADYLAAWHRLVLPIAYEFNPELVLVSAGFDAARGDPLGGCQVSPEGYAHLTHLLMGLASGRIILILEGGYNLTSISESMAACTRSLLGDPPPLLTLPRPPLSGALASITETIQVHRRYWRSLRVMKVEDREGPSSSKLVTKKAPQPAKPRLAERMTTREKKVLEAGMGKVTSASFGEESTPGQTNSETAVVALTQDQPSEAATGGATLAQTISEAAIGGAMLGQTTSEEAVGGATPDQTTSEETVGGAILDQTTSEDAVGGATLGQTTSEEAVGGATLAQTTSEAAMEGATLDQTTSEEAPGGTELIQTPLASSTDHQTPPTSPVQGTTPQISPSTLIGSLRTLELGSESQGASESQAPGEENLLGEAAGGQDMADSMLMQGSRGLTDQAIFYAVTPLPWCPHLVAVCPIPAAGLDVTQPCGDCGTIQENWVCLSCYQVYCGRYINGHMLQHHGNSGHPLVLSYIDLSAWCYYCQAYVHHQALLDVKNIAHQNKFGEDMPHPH
Kind of series: Inhibition of recombinant human HDAC6.

Series [2] is described as follows: Retention time of the compound. The class given is physicochemical.
Series [3] addresses Histone deacetylase 1 (Homo sapiens, UniProt Q13547). Briefly: Inhibition of recombinant human HDAC1.
Series [4] deals with Histone deacetylase. Kind of series: Inhibition of HDAC in human HeLa nuclear extract. It is filed as protein assay.

Histone deacetylase 1, sequence (Q13547 whole entry): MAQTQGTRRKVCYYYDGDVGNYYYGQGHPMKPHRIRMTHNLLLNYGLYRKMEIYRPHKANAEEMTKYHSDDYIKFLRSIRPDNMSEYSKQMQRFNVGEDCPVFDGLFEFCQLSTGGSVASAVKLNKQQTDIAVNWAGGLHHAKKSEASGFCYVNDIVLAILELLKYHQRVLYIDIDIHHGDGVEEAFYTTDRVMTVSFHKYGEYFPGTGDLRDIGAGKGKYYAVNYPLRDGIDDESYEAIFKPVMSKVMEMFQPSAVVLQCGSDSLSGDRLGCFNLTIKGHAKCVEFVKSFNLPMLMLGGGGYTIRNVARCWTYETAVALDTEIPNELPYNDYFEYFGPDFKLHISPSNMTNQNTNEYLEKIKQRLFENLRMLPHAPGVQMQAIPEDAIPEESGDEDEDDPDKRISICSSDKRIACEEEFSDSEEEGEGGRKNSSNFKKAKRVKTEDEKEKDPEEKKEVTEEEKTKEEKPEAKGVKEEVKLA

What is called IC50 is the concentration that inhibits the measured activity by half. With `CCCn1nc(-c2ccc(F)cc2)cc1C(=O)NCCCCCCS`, the IC50 in series [1], in series [3] and in series [4] was > 10000 nM each time. This compound came in with a Retention_time in series [2] of 6.96 min.
Regarding `O=C(NCCCCCCS)c1cc(-c2ccc(F)cc2)n(Cc2ccccc2)n1`, the IC50 in series [1], in series [3] and in series [4] was > 10000 nM each time. For the same compound, the Retention_time in series [2] was 5.49 min.
For `CCn1nc(-c2ccc(F)cc2)cc1C(=O)NCCCCCCS`, the IC50 is 5000 nM in series [1], > 10000 nM in series [3] and > 10000 nM in series [4]. Moreover, in series [2], the Retention_time came to 5.79 min.
On to `O=C(O)CCCn1nc(C(=O)NCCCCCCS)cc1-c1ccc(F)cc1`, for which the IC50 in series [1] came to 450 nM; in series [3], 1800 nM; in series [4], 810 nM. In addition, the Retention_time in series [2] is 6.9 min.
Taken in the same sequence, the figures for `O=C(O)CCCn1nc(-c2ccc(F)cc2)cc1C(=O)NCCCCCCS` were 90 nM, 130 nM, 80 nM and 13.54 min.
Taken in the same sequence, the figures for `O=C(CS)NCCCNC(=O)c1cc(-c2ccc(F)cc2)[nH]n1` were 880 nM, 1400 nM, 1500 nM and 3.25 min.
Taken in the same sequence, the figures for `Cc1c(-c2ccc(F)cc2)nn(CCCO)c1C(=O)NCCCCCCS` were 5000 nM, > 10000 nM, > 10000 nM and 3.71 min.
Take `O=C(NCCCCCCS)c1cc(-c2ccc(F)cc2)n[nH]1`: the IC50 in series [1] was found to be 760 nM; in series [3], 580 nM; in series [4] it was 690 nM. Further, the Retention_time in series [2] is listed as 3.37 min.
Consider `O=C(NCCCCCCS)c1cc(-c2ccc(F)cc2)n(CCCCO)n1`, for which the IC50 turned out to be 220 nM in series [1], 440 nM in series [3] and 540 nM in series [4]. Moreover, the Retention_time in series [2] was 3.15 min.
Taken in the same sequence, the figures for `CCn1nc(C(=O)NCCCCCCS)cc1-c1ccc(F)cc1` were > 10000 nM, > 10000 nM, > 10000 nM and 4.29 min.
Taken in the same sequence, the figures for `O=C(CCS)NCCCNC(=O)c1cc(-c2ccc(F)cc2)[nH]n1` were > 10000 nM, > 10000 nM, > 10000 nM and 2.66 min.
As to `O=C(NCCCCCCS)c1cc(-c2ccc(F)cc2)nn1CCO`, the IC50 in series [1] was determined as 910 nM; in series [3], 330 nM; in series [4], 690 nM. The compound also returned a Retention_time in series [2] of 2.86 min.
Taken in the same sequence, the figures for `O=C(NCCCCCCS)c1cc(-c2ccc(F)cc2)nn1CCCCO` were 140 nM, 250 nM, 170 nM and 3.66 min.
For `O=C(O)Cn1nc(C(=O)NCCCCCCS)cc1-c1ccc(F)cc1`, the IC50 in series [1] worked out at 250 nM; in series [3] it was 1900 nM; in series [4], 660 nM. In addition, the Retention_time in series [2] turned out to be 7.77 min.
For `O=C(NCCCCCCS)c1cc(-c2ccc(F)cc2)nn1CCCO`, in that order: 470 nM, 1300 nM, 1200 nM and 3.81 min.
Taken in the same sequence, the figures for `CCC(C)n1nc(-c2ccc(F)cc2)cc1C(=O)NCCCCCCS` (stereo not given) were > 10000 nM, > 10000 nM, > 10000 nM and 8.4 min.
As for `O=C(O)CCn1nc(C(=O)NCCCCCCS)cc1-c1ccc(F)cc1`, the IC50 was 330 nM in series [1], 2700 nM in series [3] and 400 nM in series [4]. This compound returned a Retention_time in series [2] of 2.88 min.
Taken in the same sequence, the figures for `O=C(CCS)NCCNC(=O)c1cc(-c2ccc(F)cc2)[nH]n1` were > 10000 nM, > 10000 nM, > 10000 nM and 2.74 min.
For `Cn1nc(-c2ccc(F)cc2)cc1C(=O)NCCCCCCS`, in that order: 2900 nM, > 10000 nM, 3200 nM and 5.16 min.
For the compound `CC(C)n1nc(-c2ccc(F)cc2)cc1C(=O)NCCCCCCS`, the figures for the IC50 in series [1], in series [3] and in series [4] were 7400 nM, > 10000 nM and > 10000 nM, respectively. The Retention_time in series [2] amounted to 7.17 min.
For the compound `CCCn1nc(C(=O)NCCCCCCS)cc1-c1ccc(F)cc1`, the IC50 in series [1], in series [3] and in series [4] was > 10000 nM in each case. In series [2], the Retention_time is listed as 5.2 min.
As to `O=C(O)Cn1nc(-c2ccc(F)cc2)cc1C(=O)NCCCCCCS`, the figures for the IC50 in series [1], in series [3] and in series [4] were 40 nM, 220 nM and 160 nM, respectively. This compound also yielded a Retention_time in series [2] of 3.77 min.
For `Cn1nc(C(=O)NCCCCCCS)cc1-c1ccc(F)cc1`, in that order: 6900 nM, > 10000 nM, > 10000 nM and 3.86 min.
For `O=C(CS)NCCNC(=O)c1cc(-c2ccc(F)cc2)[nH]n1`, in that order: 1800 nM, 2300 nM, 2200 nM and 2.85 min.
For `Cc1c(-c2ccc(F)cc2)n[nH]c1C(=O)NCCCCCCS`, in that order: 4400 nM, > 10000 nM, > 10000 nM and 4.08 min.
As to `Cc1c(-c2ccc(F)cc2)nn(C)c1C(=O)NCCCCCCS`, the IC50 in series [1], in series [3] and in series [4] was > 10000 nM in each case. In addition, the Retention_time in series [2] is recorded as 4.77 min.
In the case of `O=C(O)CCn1nc(-c2ccc(F)cc2)cc1C(=O)NCCCCCCS`, the IC50 was determined as 210 nM in series [1], 650 nM in series [3] and 300 nM in series [4]. For the same compound, the Retention_time in series [2] worked out at 2.99 min.
As for `O=C(NCCCCCCS)c1cc(-c2ccc(F)cc2)n(CCO)n1`, the IC50 in series [1] worked out at 1400 nM; in series [3] it was 3300 nM; in series [4], 2100 nM. In addition, the Retention_time in series [2] is recorded as 3.13 min.
As to `O=C(CS)NCCCCNC(=O)c1cc(-c2ccc(F)cc2)[nH]n1`, the IC50 in series [1] is 2100 nM; in series [3] it was > 10000 nM; in series [4] it was 8600 nM. Besides, in series [2], the Retention_time worked out at 2.94 min.
For `CCC(C)n1nc(C(=O)NCCCCCCS)cc1-c1ccc(F)cc1` (stereo not given), in that order: > 10000 nM, > 10000 nM, > 10000 nM and 5.87 min.
In the case of `CCCCn1nc(-c2ccc(F)cc2)cc1C(=O)NCCCCCCS`, the IC50 in series [1], in series [3] and in series [4] was > 10000 nM throughout. In series [2], this compound displayed a Retention_time of 11.92 min.
For `CC(C)n1nc(C(=O)NCCCCCCS)cc1-c1ccc(F)cc1`, the IC50 in series [1], in series [3] and in series [4] was > 10000 nM in each case. Moreover, in series [2], the Retention_time worked out at 4.93 min.
Turning to `O=C(CCS)NCCCCNC(=O)c1cc(-c2ccc(F)cc2)[nH]n1`, the IC50 in series [1], in series [3] and in series [4] was > 10000 nM throughout. In addition, the Retention_time in series [2] is 2.54 min.
On to `CCCCn1nc(C(=O)NCCCCCCS)cc1-c1ccc(F)cc1`, for which the IC50 in series [1], in series [3] and in series [4] was > 10000 nM each time. In series [2], the Retention_time stood at 6.79 min.
Consider `O=C(NCCCCCCS)c1cc(-c2ccc(F)cc2)n(CCCO)n1`, for which the IC50 is 850 nM in series [1], 3600 nM in series [3] and 3100 nM in series [4]. In addition, in series [2], the Retention_time is recorded as 3.19 min.
Taken in the same sequence, the figures for `O=C(NCCCCCCS)c1cc(-c2ccc(F)cc2)nn1Cc1ccccc1` were > 10000 nM, > 10000 nM, > 10000 nM and 7.52 min.
For the compound `C/C=C1\NC(=O)[C@H]2CSSCC/C=C/[C@H](CC(=O)N[C@H](C(C)C)C(=O)N2)OC(=O)[C@H](C(C)C)NC1=O` [ROMIDEPSIN], in series [3], the IC50 stood at 140 nM.

The record behind these values is ChEMBL document CHEMBL3758139, “Novel thiol-based histone deacetylase inhibitors bearing 3-phenyl-1H-pyrazole-5-carboxamide scaffold as surface recognition motif: Design, synthesis and SAR study” (Bioorg Med Chem Lett, 2016).
